Drawing on US12516064B2, “Tetrahydropyridopyrimidines and related analogs for inhibiting YAP/TAZ-TEAD” (THE KATHOLIEKE UNIVERSITEIT LEUVEN, priority 2022, dated 2026), this text covers EC50 for 30 molecules.

The assay deals with YAP/TAZ-TEAD transcription. Kind of assay: Reporter gene assay for measuring the inhibition of YAP/TAZ-TEAD transcription. Type of assay: cell-based. As to conditions: Homo sapiens, HEK-293T; Hek293T cells transiently transfected with TEAD-responsive element luciferase reporter; 24 hours incubation. Here is the method:
Hek293T cells are cultured in DMEM supplemented with 10% fetal bovine serum, Sodium pyruvate, Sodium bicarbonate, L-glutamine. The cells are harvested and transiently transfected with TEAD-responsive element luciferase reporter. Transfected cells are plated in 384-wells plate containing pre-diluted compounds. After 24 hours incubation at 37° C./5% CO2, assay plates were cooled down to RT and levelled to an equal volume per well, prior to the addition of 25 uL luciferase substrate SteadyLite (Perkin Elmer)/well. The plate was shaken for 10 min at 600 rpm, centrifuged for 1 min at 500 rpm and measured with an Envision reader (PerkinElmer). The amount of relative light units produced by the TEAD reporter is used to calculated percent of inhibition.
The percent of reporter inhibition was calculated in the presence of a positive control inhibitor (100% inhibition) versus a condition with the presence of the vehicle basal activity of the reporter (0% inhibition). The ability of a test compound to inhibit this activity was determined as: Percentage inhibition=[1−((RLU determined in the presence of vehicle−RLU determined for sample with test compound present) divided by (RLU determined in the presence of vehicle−RLU determined for sample with positive control inhibitor))]*100 The activities of example compounds tested are depicted in Table 8. The activity ranges A, B and C refer to IC50 values in the reporter gene assay as follows: “A”: EC50<1 μM; “B”: 1 μM≤EC50≤3.0 μM and “C”: EC50>3.0 μM, NT=not tested.

Some results are limits rather than exact numbers.

As to `C=CC(=O)N1CCc2c(nc(-c3ccc(C(F)(F)F)cc3)nc2-c2nnn(C)n2)C1` [Cpd. No. 81, 1-(4-(2-methyl-2H-tetrazol-5-yl)-2-(4-(trifluoromethyl)phenyl)-5,8-dihydropyrido[3,4-d]pyrimidin-7(6H)-yl)prop-2-en-1-one], the half-maximal effective concentration (EC50) (usually the concentration that produces a half-maximal response) is below 1 µM.

Take `CCC(=O)N1CCc2c(nc(-c3ccc(C(F)(F)F)cc3)nc2-c2ccn(C)n2)C1` [Cpd. No. 85, 1-(4-(1-methyl-1H-pyrazol-3-yl)-2-(4-(trifluoromethyl)phenyl)-5,8-dihydropyrido[3,4-d]pyrimidin-7(6H)-yl)propan-1-one]: the EC50 was below 1 µM.

As to `CCC(=O)N1CCc2c(nc(Cc3cccc(F)c3)nc2-c2ccn(C)n2)C1` [Cpd. No. 44, 1-(2-(3-fluorobenzyl)-4-(1-methyl-1H-pyrazol-3-yl)-5,8-dihydropyrido[3,4-d]pyrimidin-7(6H)-yl)propan-1-one], the EC50 is above 3 µM.

`C=CC(=O)N1CCc2cnc(-c3ccccc3)nc2C1` [Cpd. No. 68, 1-(2-phenyl-5,8-dihydropyrido[3,4-d]pyrimidin-7(6H)-yl)prop-2-en-1-one] returned an EC50 below 1 µM.

In the case of `Cn1ccc(-c2nc(-c3ccc(C(F)(F)F)cc3)nc3c2CCN(C#N)C3)n1` [Cpd. No. 78, 4-(1-methyl-1H-pyrazol-3-yl)-2-(4-(trifluoromethyl)phenyl)-5,8-dihydropyrido[3,4-d]pyrimidine-7(6H)-carbonitrile], the EC50 was 1 to 3 µM.

`CCC(=O)NC1CCc2c(nc(-c3ccccc3)nc2-c2ccn(C)n2)C1` (stereo not drawn) [Cpd. No. 7, N-(4-(1-methyl-1H-pyrazol-3-yl)-2-phenyl-5,6,7,8-tetrahydroquinazolin-7-yl)propionamide] showed an EC50 above 3 µM.

`CCC(=O)N1CCc2c(nc(Cc3cccc(C(F)(F)F)c3)nc2-c2ccn(C)n2)C1` [Cpd. No. 48, 1-(4-(1-methyl-1H-pyrazol-3-yl)-2-(3-(trifluoromethyl)benzyl)-5,8-dihydropyrido[3,4-d]pyrimidin-7(6H)-yl)propan-1-one] showed an EC50 of 1 to 3 µM.

With `CCC(=O)N1CCc2c(nc(Cc3ccccc3)nc2-c2ccn(Cc3cccnc3)n2)C1` [Cpd. No. 36, 1-(2-benzyl-4-(1-(pyridin-3-ylmethyl)-1H-pyrazol-3-yl)-5,8-dihydropyrido[3,4-d]pyrimidin-7(6H)-yl)propan-1-one], the EC50 was in the range of 1 to 3 µM.

`CCC(=O)N1Cc2nc(Cc3ccccc3)nc(-c3ccn(Cc4cccnc4)n3)c2C1` [Cpd. No. 18, 1-(2-benzyl-4-(1-(pyridin-3-ylmethyl)-1H-pyrazol-3-yl)-5,7-dihydro-6H-pyrrolo[3,4-d]pyrimidin-6-yl)propan-1-one]: the EC50 fell in the range of 1 to 3 µM.

`C=CC(=O)N1CCc2c(nc(-c3ccc(C(F)(F)F)cc3)nc2-c2ccn(Cc3cccnc3)n2)C1` [Cpd. No. 72, 1-(4-(1-(pyridin-3-ylmethyl)-1H-pyrazol-3-yl)-2-(4-(trifluoromethyl)phenyl)-5,8-dihydropyrido[3,4-d]pyrimidin-7(6H)-yl)prop-2-en-1-one]: the EC50 is below 1 µM.

Molecule `Cn1ccc(-c2nc(-c3ccccc3)nc3c2CCC(N)C3)n1` (stereo not drawn) [Cpd. No. 5, 4-(1-methyl-1H-pyrazol-3-yl)-2-phenyl-5,6,7,8-tetrahydroquinazolin-7-amine] registered an EC50 above 3 µM.

In turn, `Cn1ccc(-c2nc(-c3ccccc3)nc3c2CN(S(C)(=O)=O)C3)n1` [Cpd. No. 16, 4-(1-methyl-1H-pyrazol-3-yl)-6-(methylsulfonyl)-2-phenyl-6,7-dihydro-5H-pyrrolo[3,4-d]pyrimidine] yielded an EC50 above 3 µM.

`CCC(=O)N1CCc2c(nc(Cc3ccccc3)nc2-c2ccn(C)n2)C1` [Cpd. No. 33, 1-(2-benzyl-4-(1-methyl-1H-pyrazol-3-yl)-5,8-dihydropyrido[3,4-d]pyrimidin-7(6H)-yl)propan-1-one] came in with an EC50 above 3 µM.

`CC(=O)NCC(=O)N1Cc2nc(-c3ccccc3)nc(-c3ccn(Cc4cccnc4)n3)c2C1` [Cpd. No. 26, N-(2-oxo-2-(2-phenyl-4-(1-(pyridin-3-ylmethyl)-1H-pyrazol-3-yl)-5,7-dihydro-6H-pyrrolo[3,4-d]pyrimidin-6-yl)ethyl)acetamide] came in with an EC50 above 3 µM.

Take `Cn1ccc(-c2nc(-c3ccccc3)nc3c2CC(N)CC3)n1` (stereo not drawn) [Cpd. No. 1, 4-(1-methyl-1H-pyrazol-3-yl)-2-phenyl-5,6,7,8-tetrahydroquinazolin-6-amine]: the EC50 is above 3 µM.

The molecule `C=CC(=O)N1CCc2c(nc(-c3ccc(C(F)(F)F)cc3)nc2-c2nnnn2C)C1` [Cpd. No. 82, 1-(4-(1-methyl-1H-tetrazol-5-yl)-2-(4-(trifluoromethyl)phenyl)-5,8-dihydropyrido[3,4-d]pyrimidin-7(6H)-yl)prop-2-en-1-one] yielded an EC50 below 1 µM.

In the case of `CCC(=O)NC1CCc2nc(-c3ccccc3)nc(-c3ccn(Cc4cccnc4)n3)c2C1` (stereo not drawn) [Cpd. No. 10, N-(2-phenyl-4-(1-(pyridin-3-ylmethyl)-1H-pyrazol-3-yl)-5,6,7,8-tetrahydroquinazolin-6-yl)propionamide], the EC50 is above 3 µM.

`C=CC(=O)N1CCc2c(nc(-c3ccccc3)nc2-c2ccccn2)C1` [Cpd. No. 67, 1-(2-phenyl-4-(pyridin-2-yl)-5,8-dihydropyrido[3,4-d]pyrimidin-7(6H)-yl)prop-2-en-1-one] came in with an EC50 below 1 µM.

`CS(=O)(=O)N1Cc2nc(Cc3ccccc3)nc(-c3ccn(Cc4cccnc4)n3)c2C1` [Cpd. No. 19, 2-benzyl-6-(methylsulfonyl)-4-(1-(pyridin-3-ylmethyl)-1H-pyrazol-3-yl)-6,7-dihydro-5H-pyrrolo[3,4-d]pyrimidine] had an EC50 of 1 to 3 µM.

`CCC(=O)N1CCc2c(nc(-c3ccc(C(F)(F)F)cc3)nc2-c2cn(C)nn2)C1` [Cpd. No. 91, 1-(4-(1-methyl-1H-1,2,3-triazol-4-yl)-2-(4-(trifluoromethyl)phenyl)-5,8-dihydropyrido[3,4-d]pyrimidin-7(6H)-yl)propan-1-one]: the EC50 is 1 to 3 µM.

Take `CC(=O)NCC(=O)N1Cc2nc(Cc3ccccc3)nc(-c3ccn(Cc4cccnc4)n3)c2C1` [Cpd. No. 27, N-(2-(2-benzyl-4-(1-(pyridin-3-ylmethyl)-1H-pyrazol-3-yl)-5,7-dihydro-6H-pyrrolo[3,4-d]pyrimidin-6-yl)-2-oxoethyl)acetamide]: the EC50 is above 3 µM.

In turn, `C=CC(=O)NC1CCc2c(nc(-c3ccccc3)nc2-c2ccn(C)n2)C1` (stereo not drawn) [Cpd. No. 6, N-(4-(1-methyl-1H-pyrazol-3-yl)-2-phenyl-5,6,7,8-tetrahydroquinazolin-7-yl)acrylamide] returned an EC50 above 3 µM.

`C/C=C/C(=O)N1CCc2c(nc(C3CCC(F)(F)CC3)nc2-c2ccn(C)n2)C1` [Cpd. No. 95, (E)-1-(2-(4,4-difluorocyclohexyl)-4-(1-methyl-1H-pyrazol-3-yl)-5,8-dihydropyrido[3,4-d]pyrimidin-7(6H)-yl)but-2-en-1-one] had an EC50 below 1 µM.

Regarding `CN(C)C/C=C/C(=O)N1CCc2c(nc(-c3ccc(C(F)(F)F)cc3)nc2-c2ccn(C)n2)C1` [Cpd. No. 83, (E)-4-(dimethylamino)-1-(4-(1-methyl-1H-pyrazol-3-yl)-2-(4-(trifluoromethyl)phenyl)-5,8-dihydropyrido[3,4-d]pyrimidin-7(6H)-yl)but-2-en-1-one], the EC50 is below 1 µM.

Molecule `C=CC(=O)N1Cc2nc(-c3ccccc3)nc(-c3ccn(Cc4cccnc4)n3)c2C1` [Cpd. No. 23, 1-(2-phenyl-4-(1-(pyridin-3-ylmethyl)-1H-pyrazol-3-yl)-5,7-dihydro-6H-pyrrolo[3,4-d]pyrimidin-6-yl)prop-2-en-1-one] showed an EC50 below 1 µM.

`CCC(=O)NC1CCc2c(nc(-c3ccccc3)nc2-c2ccn(Cc3cccnc3)n2)C1` (stereo not drawn) [Cpd. No. 12, N-(2-phenyl-4-(1-(pyridin-3-ylmethyl)-1H-pyrazol-3-yl)-5,6,7,8-tetrahydroquinazolin-7-yl)propionamide]: the EC50 is above 3 µM.

`CS(=O)(=O)N1Cc2nc(-c3ccccc3)nc(-c3ccn(Cc4cccnc4)n3)c2C1` [Cpd. No. 25, 6-(methylsulfonyl)-2-phenyl-4-(1-(pyridin-3-ylmethyl)-1H-pyrazol-3-yl)-6,7-dihydro-5H-pyrrolo[3,4-d]pyrimidine] displayed an EC50 of 1 to 3 µM.

`C=CS(=O)(=O)N1CCc2c(nc(-c3ccc(C(F)(F)F)cc3)nc2-c2ccn(C)n2)C1` [Cpd. No. 80, 4-(1-methyl-1H-pyrazol-3-yl)-2-(4-(trifluoromethyl)phenyl)-7-(vinylsulfonyl)-5,6,7,8-tetrahydropyrido[3,4-d]pyrimidine] returned a 50% effective concentration (EC50) below 1 µM.

`Cn1ccc(-c2nc(-c3ccc(C(F)(F)F)cc3)nc3c2CCN(S(C)(=O)=O)C3)n1` [Cpd. No. 79, 4-(1-methyl-1H-pyrazol-3-yl)-7-(methylsulfonyl)-2-(4-(trifluoromethyl)phenyl)-5,6,7,8-tetrahydropyrido[3,4-d]pyrimidine] registered an EC50 of 1 to 3 µM.

Take `C=CC(=O)NC1CCc2nc(-c3ccccc3)nc(-c3ccn(Cc4cccnc4)n3)c2C1` (stereo not drawn) [Cpd. No. 9, N-(2-phenyl-4-(1-(pyridin-3-ylmethyl)-1H-pyrazol-3-yl)-5,6,7,8-tetrahydroquinazolin-6-yl)acrylamide]: the EC50 is above 3 µM.
